From US20150258059A1, “ANTIMICROBIAL AND RADIOPROTECTIVE COMPOUNDS” (BioDiem, Ltd, priority 2001, published 2015)
≈ marks a conversion by molar mass, not a printed value. Like-named read-outs stand apart in the source and are kept apart here. Marks after values point to notes of the source that are not given here.

Tests used:
[1] = test system: Salmonella typhimurium M-727; experiment: Sensitivity of strains: suppression of growth; format: cell-based; conditions: Compound (1) 1.0%; antibiotics disc method
[2] = test system: Alkaligenes sp. B-689; experiment: Sensitivity of strains: suppression of growth; format: cell-based; conditions: Compound (1) 1.0%; antibiotics disc method
[3] = test system: Bacillus sp. B-575; experiment: Sensitivity of strains: suppression of growth; format: cell-based; conditions: Compound (1) 1.0%; antibiotics disc method; also: key: + sensitive strains; + moderately sensitive strains; − stable strains
[4] = test system: Staphylococcus epidermidis BK-30; experiment: Sensitivity of strains: suppression of growth; format: cell-based; conditions: Compound (1) 1.0%; antibiotics disc method
[5] = test system: Shigella sonnei B-720; experiment: Agar diffusion assay; format: cell-based
[6] = test system: Salmonella paratyphi M-16469; experiment: Agar diffusion assay; format: cell-based
[7] = test system: Torula histolytica (Cryptococcus); experiment: Sensitivity of pathogenic fungi; format: cell-based; conditions: Inoculation 10^5
[8] = test system: Mycobact tub. H.37RV; experiment: Anti-TB effect, serial double dilution in liquid medium; format: cell-based, M tuberculosis; conditions: read-out: Minimal Inhibitory Concentration
[9] = test system: Proteus vulgaris RMIT; experiment: NCCLS broth microdilution MIC/MBC; format: cell-based; conditions: for MIC: Proteus vulgaris
[10] = test system: Escherichia coli ATCC 25922; experiment: NCCLS broth microdilution MIC/MBC; format: cell-based; conditions: for MIC: Escherichia coli, ATCC25922, read-out: MIC
[11] = test system: Pseudomonas aeruginosa ATCC 27853; experiment: NCCLS broth microdilution MIC/MBC; format: cell-based; conditions: for MIC: Pseudomonas aeruginosa, ATCC27853, read-out: MIC
[12] = test system: Proteus vulgaris; experiment: microbe, parasite or virus in culture; format: cell-based; conditions: for MIC: Proteus vulgaris
[13] = test system: Candida albicans; experiment: microbe, parasite or virus in culture; format: cell-based; conditions: for MIC: Candida albicans
[14] = test system: Rhodotorula rubra; experiment: microbe, parasite or virus in culture; format: cell-based; conditions: for MIC: Rhodotorula
[15] = test system: S. aureus; experiment: Antibacterial activity in the presence of blood, macrodilution; format: cell-based
[16] = test system: M. catarrhalis; experiment: as above; format: cell-based; conditions: for MIC: Moraxella catarrhalis
[17] = test system: C. krusei RMIT 177; experiment: M38-P microdilution MIC/MFC; format: cell-based; conditions: 35° C.
[18] = test system: Paecilomyces variotii; experiment: M38-P microdilution MIC/MFC; format: cell-based; conditions: Table 16, 48 h, 35° C.
[19] = test system: Microsporum gypseum; experiment: M38-P microdilution MIC/MFC; format: cell-based; conditions: Table 16, Dermatophytes
[20] = test system: Bacillus subtilis; experiment: Stability of stock solutions on storage, potency by MIC/MBC; format: cell-based
[21] = test system: Staphylococcus aureus; experiment: Rate of kill, viable counts
[22] = test system: Acinetobacter calcoaceticus; experiment: Rate of kill, viable counts; conditions: in 6 h
[23] = test system: Enterococcus faecalis museum strain; experiment: Impregnated agar serial double dilutions; conditions: meat peptone agar
[24] = after 12 weeks continuous exposure, read-out: Standard MIC Final
[25] = before exposure, MHB, read-out: Standard MIC Initial
[26] = Range to Week 12, No Rising Trend
[27] = stock 512 μg/mL stored 4° C., 0 weeks
[28] = stock 512 μg/mL stored 4° C., 2 weeks
[29] = stock 512 μg/mL stored 4° C., 4 weeks
[30] = stock 512 μg/mL stored 4° C., 6 weeks
[31] = stock 512 μg/mL stored 4° C., 8 weeks
[32] = stock 512 μg/mL stored 4° C., 10 weeks
[33] = stock 512 μg/mL stored 4° C., 12 weeks
[34] = stock 512 μg/mL stored RT, 0 weeks
[35] = stock 512 μg/mL stored RT, 2 weeks
[36] = stock 512 μg/mL stored RT, 4 weeks
[37] = stock 512 μg/mL stored RT, 6 weeks
[38] = stock 512 μg/mL stored RT, 8 weeks
[39] = stock 512 μg/mL stored RT, 10 weeks
[40] = stock 512 μg/mL stored RT, 12 weeks
[41] = stock 512 μg/mL stored −20° C., 0 weeks
[42] = stock 512 μg/mL stored −20° C., 2 weeks
[43] = stock 512 μg/mL stored −20° C., 4 weeks
[44] = stock 512 μg/mL stored −20° C., 6 weeks
[45] = stock 512 μg/mL stored −20° C., 8 weeks
[46] = stock 512 μg/mL stored −20° C., 10 weeks
[47] = stock 512 μg/mL stored −20° C., 12 weeks

Structure (SMILES): C/C(=C\c1ccc2c(c1)OCO2)[N+](=O)[O-] [Compound (1)]
- Suppression of Growth (+/−) [1]: +
- Suppression of Growth (+/−) [2]: +
- Suppression of Growth (+/−) [3]: +
- Suppression of Growth (+/−) [4]: +
- Diameter of zone of Growth inhibition ([5]; Concentration in disc 0.1%): 30# mm
- Diameter of zone of Growth inhibition ([5]; Concentration in disc 1.0%): 35# mm
- Diameter of zone of Growth inhibition ([5]; Concentration in disc 2.0%): 39# mm
- Diameter of zone of Growth inhibition ([6]; Concentration in disc 0.1%): 28# mm
- Diameter of zone of Growth inhibition ([6]; Concentration in disc 1.0%): 30# mm
- Diameter of zone of Growth inhibition ([6]; Concentration in disc 2.0%): 36# mm
- Number of microbes: Growth ([7]; 0.1%): 0
- Number of microbes: Retardation ([7]; 0.1%): 10^5
- Number of microbes: Growth ([7]; 0.5%): 0
- Number of microbes: Retardation ([7]; 0.5%): 10^5
- Number of microbes: Growth ([7]; 2.0%): 0
- Number of microbes: Retardation ([7]; 2.0%): 10^5
- MIC [8]: 6.25 µg/mL (≈ 30.2 µM)
- MIC [9]: 128 µg/mL (≈ 618 µM)
- MIC ([9]; 24 h): 128 µg/mL (≈ 618 µM)
- MMC ([9]; Table 9, 35° C., 24 hours): 256 µg/mL
- MMC ([9]; Table 17, 2 or 3 replicates): 128 µg/mL
- MIC ([10]; Table 9, 35° C., 24 hours): > 512 µg/mL
- MIC ([10]; Table 17, 2 or 3 replicates): > 512 µg/mL
- MMC ([10]; Table 9, 35° C., 24 hours): >512 µg/mL
- MMC ([10]; Table 17, 2 or 3 replicates): >512 µg/mL
- MIC ([11]; Table 9, 35° C., 24 hours): > 512 µg/mL
- MIC ([11]; Table 17, 2 or 3 replicates): > 512 µg/mL
- MMC ([11]; Table 9, 35° C., 24 hours): >512 µg/mL
- MMC ([11]; Table 17, 2 or 3 replicates): >512 µg/mL
- MIC [12, 24]: 128 µg/mL (≈ 618 µM)
- MIC [12, 25]: 128 µg/mL (≈ 618 µM)
- 7-Day MIC Range [12, 26]: 64 to 256 µg/mL
- MIC [13, 24]: 4 µg/mL (≈ 19.3 µM)
- MIC [13, 25]: 4 µg/mL (≈ 19.3 µM)
- 7-Day MIC Range [13, 26]: 16 to 64 µg/mL
- MIC ([14]; Table 20, […], after 12 weeks continuous exposure, read-out: MIC Final): 16 µg/mL (≈ 77.2 µM)
- MIC ([14]; Table 20, […], parent strain, read-out: MIC Initial): 8 µg/mL (≈ 38.6 µM)
- MIC [14, 25]: 8 µg/mL (≈ 38.6 µM)
- 7-Day MIC Range ([14]; to Wk 5): 8-32 to Wk 5 μg/mL
- MIC ([15]; 5% blood): 16 µg/mL
- MMC ([15]; 5% blood): 256 µg/mL
- MIC ([15]; 10% plasma): 16 µg/mL
- MMC ([15]; 10% plasma): 256 µg/mL
- MIC ([15]; Staphylococcus aureus): 16 µg/mL
- MMC ([16]; 5% blood): 8 µg/mL
- MMC ([16]; 10% plasma): 8 µg/mL
- MIC ([16]; 5% blood): 4 µg/mL
- MIC ([16]; 10% plasma): 8 µg/mL
- MIC ([16]; — (no plasma or blood)): 32 µg/mL
- MIC ([17]; Pichia kudriavzevii, RMIT177, Table 16, 24 h, read-out: MIC): 4 µg/mL (≈ 19.3 µM)
- MMC ([17]; Table 16, 24 h): 4 µg/mL
- MIC ([18]; Paecilomyces variotii, read-out: MIC): 1 µg/mL (≈ 4.83 µM)
- MMC [18]: 2 µg/mL
- MIC ([19]; Nannizzia gypsea): 1 µg/mL (≈ 4.83 µM)
- MMC [19]: 8 µg/mL
- stability of dilute solutions on storage ([20]; 12 weeks at 4° C. and −20° C.): very stable
- MBC [20, 27]: 8 µg/mL (≈ 38.6 µM)
- MIC [20, 27]: 4 µg/mL (≈ 19.3 µM)
- MBC [20, 28]: 8 µg/mL (≈ 38.6 µM)
- MIC [20, 28]: 4 µg/mL (≈ 19.3 µM)
- MBC [20, 29]: 16 µg/mL (≈ 77.2 µM)
- MIC [20, 29]: 4 µg/mL (≈ 19.3 µM)
- MBC [20, 30]: 16 µg/mL (≈ 77.2 µM)
- MIC [20, 30]: 4 µg/mL (≈ 19.3 µM)
- MBC [20, 31]: 16 µg/mL (≈ 77.2 µM)
- MIC [20, 31]: 4 µg/mL (≈ 19.3 µM)
- MBC [20, 32]: 16 µg/mL (≈ 77.2 µM)
- MIC [20, 32]: 4 µg/mL (≈ 19.3 µM)
- MBC [20, 33]: 16 µg/mL (≈ 77.2 µM)
- MIC [20, 33]: 4 µg/mL (≈ 19.3 µM)
- MBC [20, 34]: 8 µg/mL (≈ 38.6 µM)
- MIC [20, 34]: 4 µg/mL (≈ 19.3 µM)
- MBC [20, 35]: 8 µg/mL (≈ 38.6 µM)
- MIC [20, 35]: 4 µg/mL (≈ 19.3 µM)
- MBC [20, 36]: 8 µg/mL (≈ 38.6 µM)
- MIC [20, 36]: 4 µg/mL (≈ 19.3 µM)
- MBC [20, 37]: 16 µg/mL (≈ 77.2 µM)
- MIC [20, 37]: 4 µg/mL (≈ 19.3 µM)
- MBC [20, 38]: 16 µg/mL (≈ 77.2 µM)
- MIC [20, 38]: 8 µg/mL (≈ 38.6 µM)
- MBC [20, 39]: 16 µg/mL (≈ 77.2 µM)
- MIC [20, 39]: 8 µg/mL (≈ 38.6 µM)
- MBC [20, 40]: 16 µg/mL (≈ 77.2 µM)
- MIC [20, 40]: 8 µg/mL (≈ 38.6 µM)
- MBC [20, 41]: 8 µg/mL (≈ 38.6 µM)
- MIC [20, 41]: 4 µg/mL (≈ 19.3 µM)
- MBC [20, 42]: 8 µg/mL (≈ 38.6 µM)
- MIC [20, 42]: 4 µg/mL (≈ 19.3 µM)
- MBC [20, 43]: 16 µg/mL (≈ 77.2 µM)
- MIC [20, 43]: 4 µg/mL (≈ 19.3 µM)
- MBC [20, 44]: 16 µg/mL (≈ 77.2 µM)
- MIC [20, 44]: 4 µg/mL (≈ 19.3 µM)
- MBC [20, 45]: 16 µg/mL (≈ 77.2 µM)
- MIC [20, 45]: 4 µg/mL (≈ 19.3 µM)
- MBC [20, 46]: 16 µg/mL (≈ 77.2 µM)
- MIC [20, 46]: 4 µg/mL (≈ 19.3 µM)
- MBC [20, 47]: 16 µg/mL (≈ 77.2 µM)
- MIC [20, 47]: 4 µg/mL (≈ 19.3 µM)
- Log reduction in viable count ([21]; 256 μg/mL, in 6 h): 0.5 in 6 h
- Log reduction in viable count ([21]; 512 μg/mL, in 9 h): 4 in 9 h
- Log reduction in viable count ([22]; 256 μg/mL): 1 in 6 h
- Log reduction in viable count ([22]; 512 μg/mL): 1 in 6 h
- Minimal % Compound (1) giving complete inhibition of test culture [23]: 0.015%
